Paper PMC8134461, “A physicochemical assessment of the thermal stability of dextrin–colistin conjugates” (Scientific Reports, 2021)
Where a name gives a salt, the structure may show the parent alone. Positions of bridges follow the written chain, without caps; N, C: chain ends. Non-standard residues stand in square brackets, D forms with d. Residues, ends and D or L forms follow the SMILES beside them. *: point of attachment. X1 = CC[C@H](C)CCCCC(=O)*; Dab = NCC[C@H](N)C(=O)O

Experiments:
[1] = system: V5 Escherichia coli AIM-1; test: MIC assay (broth microdilution) after storage; type: cell-based; conditions: 16–20 h, mode (n = 3), equivalent colistin concentration for conjugates; for MIC, Initial: before storage, 3 mg/mL in PBS, broth microdilution in MH broth; for MIC, storage temperature 4 °C: stored in PBS at 4 °C for 12 months; for MIC, storage temperature 4 °C / MIC, storage temperature 21 °C / MIC, storage temperature 37 °C / MIC, storage temperature -20 °C / MIC, repeat freeze–thaw: broth microdilution, MH broth; for MIC, storage temperature 21 °C: stored in PBS at 21 °C for 12 months; for MIC, storage temperature 37 °C: stored in PBS at 37 °C for 12 months; for MIC, storage temperature -20 °C: stored in PBS at -20 °C for 12 months; for MIC, repeat freeze–thaw: weekly freeze-thawing for 5 weeks (-20 °C, defrosted 1 h at 20–22 °C)
Experimental: (§1) The clinical isolates (V5 Escherichia coli AIM-1, V6 Klebsiella pneumoniae IR25 and V19 Acinetobacter baumannii 7789) and susceptibility testing method have been previously described by Khan et al.[33] Bacterial colonies were grown on blood agar supplemented with 5% v/v defibrinated horse blood. Overnight cultures were prepared in tryptone soy broth (TSB) and Mueller–Hinton broth (MHB) was used for MIC determination (LabM; Bury, UK).
(§2) Three primary batches of colistin sulfate, CMS and dextrin-colistin conjugates were dissolved in PBS at 3 mg/mL and stored at − 20, 4, 21 and 37 °C for 0, 1, 3, 6, 9 and 12 months. In addition, to test the effect of repeated freeze–thaw on stability, a separate set of solutions were stored at − 20 °C and defrosted for 1 h at 20–22 °C weekly for 5 cycles. Samples were analyzed using FPLC (free drug) and GPC (saccharide release) and antimicrobial activity, UV/vis absorbance and protein content (bicinchoninic acid (BCA) assay) of the samples stored for 12 months was assessed.
(§3) The minimum inhibitory concentration (MIC) of colistin sulphate, CMS and dextrin-colistin conjugates was determined using the broth microdilution method in MH broth in accordance with standard guidelines. Test organisms were suspended in MH broth (100 µL, 5 × 10^5 colony forming units (CFU)/mL) and incubated in 96-well microtitre plates in serial two-fold dilutions of the test compounds. The MIC was defined as the lowest concentration of test compound that produced no visible growth after 16–20 h. Results were expressed as mode (n = 3).

[2] = system: V19 Acinetobacter baumannii 7789; type: cell-based; conditions: 16–20 h, mode (n = 3), equivalent colistin concentration for conjugates; for MIC, Initial: before storage, 3 mg/mL in PBS, broth microdilution in MH broth; for MIC, storage temperature 4 °C: stored in PBS at 4 °C for 12 months; for MIC, storage temperature 4 °C / MIC, storage temperature 21 °C / MIC, storage temperature 37 °C / MIC, storage temperature -20 °C / MIC, repeat freeze–thaw: broth microdilution, MH broth; for MIC, storage temperature 21 °C: stored in PBS at 21 °C for 12 months; for MIC, storage temperature 37 °C: stored in PBS at 37 °C for 12 months; for MIC, storage temperature -20 °C: stored in PBS at -20 °C for 12 months; for MIC, repeat freeze–thaw: weekly freeze-thawing for 5 weeks (-20 °C, defrosted 1 h at 20–22 °C)
Experimental: as §1, §2, §3

[3] = system: V6 Klebsiella pneumoniae IR25; type: cell-based; conditions: 16–20 h, mode (n = 3), equivalent colistin concentration for conjugates; for MIC, Initial: before storage, 3 mg/mL in PBS, broth microdilution in MH broth; for MIC, storage temperature 4 °C: stored in PBS at 4 °C for 12 months; for MIC, storage temperature 4 °C / MIC, storage temperature 21 °C / MIC, storage temperature 37 °C / MIC, storage temperature -20 °C / MIC, repeat freeze–thaw: broth microdilution, MH broth; for MIC, storage temperature 21 °C: stored in PBS at 21 °C for 12 months; for MIC, storage temperature 37 °C: stored in PBS at 37 °C for 12 months; for MIC, storage temperature -20 °C: stored in PBS at -20 °C for 12 months; for MIC, repeat freeze–thaw: weekly freeze-thawing for 5 weeks (-20 °C, defrosted 1 h at 20–22 °C)
Experimental: as §1, §2, §3

[4] = Stability during storage in PBS: saccharide release and elution profile by GPC; type: physicochemical; conditions: 3 mg/mL in PBS, up to 12 months; Ultrahydrogel 120, RI; CMS: after storage above -20 °C
Experimental: as §2
GPC was performed using an Ultrahydrogel guard column and two Ultrahydrogel 120 columns (7.8 mm × 300 mm) from Waters (Elstree, UK) in series, connected to a Jasco PU-1580 HPLC pump with PBS buffer eluent and a flow rate of 1 mL/min. Samples (300 μL) were injected into a 100 μL loop and the eluate was monitored using a Jasco MD-2010 multi-wavelength UV detector (210 and 280 nm) and a Gilson 153 differential refractometer (Middleton, WI, USA) connected to a Polymer Laboratories PL DataStream (Church Stretton, UK). Dual detection enabled distinction of dextrin and saccharide components that are not bound to colistin. Cirrus GPC software (version 3.2, 2006) from Polymer Laboratories (Church Stretton, UK) was used for data analysis. Glucose and maltose oligomers (DP 2, 3, 6 and 7) were employed for calibration. […]

[5] = system: V5 Escherichia coli AIM-1, V6 Klebsiella pneumoniae IR25 and V19 Acinetobacter baumannii 7789; test: Antimicrobial activity after storage, MIC assay, statement over all test strains; type: cell-based; conditions: repeated freeze–thaw or storage in solution for up to 12 months at -20, 4 or 21 °C
Experimental: as §1, §2
The minimum inhibitory concentration (MIC) of colistin sulphate, CMS and dextrin-colistin conjugates was determined using the broth microdilution method in MH broth in accordance with standard guidelines. […] Results were expressed as mode (n = 3).

In the case of `CC[C@H](C)CCCCC(=O)N[C@@H](CCN)C(=O)N[C@H](C(=O)N[C@@H](CCN)C(=O)N[C@H]1CCNC(=O)[C@H]([C@@H](C)O)NC(=O)[C@H](CCN)NC(=O)[C@H](CCN)NC(=O)[C@H](CC(C)C)NC(=O)[C@@H](CC(C)C)NC(=O)[C@H](CCN)NC1=O)[C@@H](C)O` [Colistin sulfate, colistin sulfate] (X1-[Dab]T[Dab][Dab][Dab][dL]L[Dab][Dab]T; lactam 4-C (inferred); N-terminus assumed), the “MIC, Initial” value [1] is reported as 0.004 µg/mL, the “MIC, storage temperature 4 °C” value [1] is reported as 0.002 µg/mL and the “MIC, storage temperature 21 °C” value [1] is reported as 0.016 µg/mL. For the same compound, the “MIC, storage temperature 37 °C” value [1] was 0.25 µg/mL, the “MIC, storage temperature -20 °C” value [1] was 0.002 µg/mL and the “MIC, repeat freeze–thaw” value [1] was 0.004 µg/mL. For the same compound, the “MIC, Initial” value [2] was 0.063 µg/mL, the “MIC, storage temperature 4 °C” value [2] was 0.031 µg/mL and the “MIC, storage temperature 21 °C” value [2] was 0.125 µg/mL. For the same compound, the “MIC, storage temperature 37 °C” value [2] was 32 µg/mL, the “MIC, storage temperature -20 °C” value [2] was 0.063 µg/mL and the “MIC, repeat freeze–thaw” value [2] was 0.063 µg/mL. For the same compound, the “MIC, Initial” value [3] was 0.125 µg/mL, the “MIC, storage temperature 4 °C” value [3] was 0.125 µg/mL and the “MIC, storage temperature 21 °C” value [3] was 0.5 µg/mL. The “MIC, storage temperature 37 °C” value [3] was over 128 µg/mL, the “MIC, storage temperature -20 °C” value [3] was 0.063 µg/mL and the “MIC, repeat freeze–thaw” value [3] was 0.25 µg/mL. For the same compound, the “change of GPC elution profile after storage” value [4] was “largely unchanged” and the “change of antimicrobial activity (MIC) after storage” value [5] was “unaffected”.

In the case of Colistimethate sodium [CMS], the “MIC, Initial” value [1] is reported as 0.125 µg/mL, the “MIC, storage temperature 4 °C” value [1] is reported as 0.063 µg/mL and the “MIC, storage temperature 21 °C” value [1] is reported as 0.063 µg/mL. The “MIC, storage temperature 37 °C” value [1] was 8 µg/mL, the “MIC, storage temperature -20 °C” value [1] was 0.031 µg/mL and the “MIC, repeat freeze–thaw” value [1] was 0.031 µg/mL. For the same compound, the “MIC, Initial” value [2] was 0.5 µg/mL, the “MIC, storage temperature 4 °C” value [2] was 0.125 µg/mL and the “MIC, storage temperature 21 °C” value [2] was 0.25 µg/mL. For the same compound, the “MIC, storage temperature 37 °C” value [2] was 64 µg/mL, the “MIC, storage temperature -20 °C” value [2] was 0.25 µg/mL and the “MIC, repeat freeze–thaw” value [2] was 0.125 µg/mL. For the same compound, the “MIC, Initial” value [3] was 2 µg/mL, the “MIC, storage temperature 4 °C” value [3] was 1 µg/mL and the “MIC, storage temperature 21 °C” value [3] was 1 µg/mL. The “MIC, storage temperature 37 °C” value [3] was 128 µg/mL, the “MIC, storage temperature -20 °C” value [3] was 1 µg/mL and the “MIC, repeat freeze–thaw” value [3] was 0.5 µg/mL. For the same compound, the “change of GPC elution profile after storage” value [4] was “Significant changes in the elution profile” and the “change of antimicrobial activity (MIC) after storage” value [5] was “unaffected”.
